Measured values from patent publication US12448389B2, “BRM targeting compounds and associated methods of use” (Prelude Therapeutics Incorporated, priority 2020, dated 2025).

Key:
Type in all cases: cell-based
SMARCA2 = biological target: T1, SMARCA2 (Homo sapiens, UniProt P51531); experiment: SMARCA2 protein degradation in NCIH520 cells by In Cell Western (ICW); details: highest concentration 1 μM; for DC50: H520 cells, overnight incubation (maximum 18 hours), read-out: DC50 (SM2_H520): SMARCA2 degradation potency; for Dmax: NCI-H520, overnight incubation (maximum 18 hours), read-out: Dmax % (SM2_H520): maximum SMARCA2 degradation within the concentrations tested
T1 construct: endogenous in cells; host or cells: NCI-H520 (given as NCIH520 / NCIH1520 / H520)
Experimental: (§1) Compounds were dissolved in DMSO to make 10 mM stock and 3-fold series dilutions were further conducted keeping the highest concentration 10 μM. NCIH11693 and NCIH1520 cells were maintained in PRMI 1640 medium (Corning Cellgro, Catalog #: 10-040-CV) supplemented with 10% v/v FBS (GE Healthcare, Catalog #: SH30910.03) by splitting 1:3 twice a week.
(§2) SMACRA2 and SMARCA4 Protein Degradation DC50 Values in NCIH1693 and NCIH520 Cells by in Cell Western (ICW) Analysis.
(§3) Cells were trypsinized and 30 thousand cells/well were seeded into 384-well plates and were allowed to grow for 1-2 hours at 37° C. Eight-point, 3-fold serial dilutions of compounds from 0.5 mM stocks were added to the cells (using digital Dispenser D300-Tecan, keeping highest concentration 1 μM and normalizing with DMSO at the highest dispensed volume). Plates were incubated at 37° C. for overnight (maximum 18 hours). Cells incubated with DMSO was used as a vehicle control.
(§4) To perform In Cell Western, medium was removed from all the wells leaving cells attached to the surface. After removing the medium, cells were fixed within the plates with 40 μL of 4% formaldehyde by incubating at room temperature for 30 minutes, and then permeabilized with wash buffer (1×PBS with 0.1% Triton X-100) by washing the plate 5 times with 50 μL/well. Before labeling with primary antibodies, cells were blocked with 30 μL/well of blocking buffer (Licor Odyssey blocking buffer PBS #927-40000) for 30 minutes at room temperature. To measure SMARCA2 or SMARCA4 proteins, cells were labeled with 20 μL/well of anti SMARCA2 or SMACRA4 antibodies (Cell Signaling BRM #11966S 1:800, Cell Signaling BRG #49360S 1:800) diluted in Li-Cor Odyssey blocking buffer-PBS #927-40000, followed by overnight incubation at 4° C.
(§5) The next day, plates were washed 5×5 minutes with 50 μL/well of washing buffer to remove all the excess primary antibody and then 20 μL from a mixture of secondary antibody and fluorescent DNA specific dye (Goat anti rabbit 1:500 IRDye-800CW #92632211, and DRAQ5™ 1:2000-#ab108410) was added to each well. Plates were incubated for 1 hour at room temperature with gentle rocking. Cells were washed 5 times with 50 μL/well wash buffer, followed by one last wash with DI water, followed by 10 mins drying at 37° C. oven before scanning. Plates were scanned using Li-Cor Odyssey CLx imaging system to acquire integrated intensities at 700 nm and 800 nm. SMARCA signals were normalized to total cell count and then these normalized values were used to calculate the percent degradation relative to DMSO control and maximum inhibition. DC50s were calculated by using the GraphPad Prism4 program based on sigmoidal dose response equation ([Inhibitor] vs. normalized response-Variable slope).
(§6) In Table 36, the DC50/Dmax% (SM2_H520) refers to SMARCA2 degradation potency/maximum SMARCA2 degradation within the concentrations in H520 cells and DC50/Dmax% (SM4_H520) refers to SMARCA4 degradation potency/maximum SMARCA4 degradation within the concentrations tested in H520 cells.

SMARCA4 = biological target: T2, SMARCA4 (Homo sapiens, UniProt P51532); experiment: SMARCA4 protein degradation in NCIH520 cells by In Cell Western (ICW); details: highest concentration 1 μM; for DC50: H520 cells, overnight incubation (maximum 18 hours), read-out: DC50 (SM4_H520): SMARCA4 degradation potency; for Dmax: NCI-H520, overnight incubation (maximum 18 hours), read-out: Dmax % (SM4_H520): maximum SMARCA4 degradation within the concentrations tested
T2 construct: endogenous in cells; host or cells: NCI-H520 (given as NCIH520 / NCIH1520 / H520)
Experimental: as §1, §2, §3, §4, §5, §6

SMARCA2-HiBiT = biological target: T3, SMARCA2-HiBiT (Homo sapiens, UniProt P51531); experiment: SMARCA2 HiBiT degradation assay in HeLa cells; details: 18 hours incubation; for DC50: read-out: HeLa_HiBit-SM2 DC50; for Dmax: HeLa, read-out: HeLa-HiBit-SM2 Dmax (%)
T3 construct: SMARCA2-HiBiT knock-in Hela monoclonal cell (CS302366); host or cells: HeLa monoclonal knock-in line (CRISPR HiBiT knock-in at the endogenous locus, heterozygous)
Procedure, shortened: (§7)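 HeLa monoclonal lines with heterozygous HiBiT knock-in were seeded at 2500 cells/well in EMEM with 10% FBS and treated with compound for 18 h at 37 °C. Remaining tagged protein was measured by Nano-Glo HiBiT lytic luminescence after 30–60 min at RT, and values came from curve fitting.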

SMARCA4-HiBiT = biological target: T4, SMARCA4-HiBiT (Homo sapiens, UniProt P51532); experiment: SMARCA4 HiBiT degradation assay in HeLa cells; details: 18 hours incubation; for DC50: read-out: HeLa-HiBit-SM4 DC50; for Dmax: HeLa, read-out: HeLa-HiBit-SM4 Dmax (%)
T4 construct: SMARCA4-HiBiT knock-in Hela monoclonal cell (CS3023226); host or cells: HeLa monoclonal knock-in line (CRISPR HiBiT knock-in at the endogenous locus, heterozygous)
Procedure, shortened: as §7

T1 sequence (P51531 whole entry): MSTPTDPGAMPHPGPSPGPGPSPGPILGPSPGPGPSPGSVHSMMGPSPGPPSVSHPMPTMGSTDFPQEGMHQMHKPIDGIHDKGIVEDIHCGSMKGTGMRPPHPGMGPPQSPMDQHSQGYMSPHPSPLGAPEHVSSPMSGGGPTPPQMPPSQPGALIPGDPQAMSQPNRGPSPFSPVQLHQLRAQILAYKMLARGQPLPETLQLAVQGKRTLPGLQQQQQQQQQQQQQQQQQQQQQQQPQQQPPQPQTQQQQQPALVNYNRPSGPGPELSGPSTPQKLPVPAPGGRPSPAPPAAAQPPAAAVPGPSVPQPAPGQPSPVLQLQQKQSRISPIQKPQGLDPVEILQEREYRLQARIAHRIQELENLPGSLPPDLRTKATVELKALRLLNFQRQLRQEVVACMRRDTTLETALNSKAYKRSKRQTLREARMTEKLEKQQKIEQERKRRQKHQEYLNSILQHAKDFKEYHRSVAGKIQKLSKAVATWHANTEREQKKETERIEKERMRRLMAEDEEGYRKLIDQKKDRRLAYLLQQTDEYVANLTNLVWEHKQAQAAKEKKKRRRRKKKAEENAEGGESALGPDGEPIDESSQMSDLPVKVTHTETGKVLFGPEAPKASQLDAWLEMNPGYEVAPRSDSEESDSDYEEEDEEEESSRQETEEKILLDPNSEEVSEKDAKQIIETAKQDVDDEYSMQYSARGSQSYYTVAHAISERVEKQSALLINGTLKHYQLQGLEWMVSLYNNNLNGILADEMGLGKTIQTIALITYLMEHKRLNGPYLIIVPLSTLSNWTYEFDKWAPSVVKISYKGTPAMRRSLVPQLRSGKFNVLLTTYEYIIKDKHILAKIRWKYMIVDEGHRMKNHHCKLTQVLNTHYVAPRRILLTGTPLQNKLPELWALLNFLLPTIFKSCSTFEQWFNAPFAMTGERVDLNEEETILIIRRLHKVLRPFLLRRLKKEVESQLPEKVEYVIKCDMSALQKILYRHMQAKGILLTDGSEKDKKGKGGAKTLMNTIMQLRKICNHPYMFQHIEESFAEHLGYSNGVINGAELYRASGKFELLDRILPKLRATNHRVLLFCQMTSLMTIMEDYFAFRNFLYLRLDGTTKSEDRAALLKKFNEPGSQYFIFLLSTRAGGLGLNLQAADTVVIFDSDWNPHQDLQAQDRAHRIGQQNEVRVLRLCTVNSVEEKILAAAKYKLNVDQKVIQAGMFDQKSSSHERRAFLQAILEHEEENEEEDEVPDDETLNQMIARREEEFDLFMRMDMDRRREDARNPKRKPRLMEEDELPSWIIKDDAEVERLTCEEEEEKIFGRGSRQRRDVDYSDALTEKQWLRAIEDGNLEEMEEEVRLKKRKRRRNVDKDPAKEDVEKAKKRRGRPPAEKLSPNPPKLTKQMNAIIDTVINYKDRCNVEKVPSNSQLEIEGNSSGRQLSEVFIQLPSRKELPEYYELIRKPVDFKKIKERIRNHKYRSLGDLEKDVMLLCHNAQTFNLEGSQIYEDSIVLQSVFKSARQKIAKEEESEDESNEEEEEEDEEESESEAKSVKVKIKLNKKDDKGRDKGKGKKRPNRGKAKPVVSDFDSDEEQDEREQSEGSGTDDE
T3 sequence (P51531 whole entry): as above
T2 sequence (P51532 whole entry): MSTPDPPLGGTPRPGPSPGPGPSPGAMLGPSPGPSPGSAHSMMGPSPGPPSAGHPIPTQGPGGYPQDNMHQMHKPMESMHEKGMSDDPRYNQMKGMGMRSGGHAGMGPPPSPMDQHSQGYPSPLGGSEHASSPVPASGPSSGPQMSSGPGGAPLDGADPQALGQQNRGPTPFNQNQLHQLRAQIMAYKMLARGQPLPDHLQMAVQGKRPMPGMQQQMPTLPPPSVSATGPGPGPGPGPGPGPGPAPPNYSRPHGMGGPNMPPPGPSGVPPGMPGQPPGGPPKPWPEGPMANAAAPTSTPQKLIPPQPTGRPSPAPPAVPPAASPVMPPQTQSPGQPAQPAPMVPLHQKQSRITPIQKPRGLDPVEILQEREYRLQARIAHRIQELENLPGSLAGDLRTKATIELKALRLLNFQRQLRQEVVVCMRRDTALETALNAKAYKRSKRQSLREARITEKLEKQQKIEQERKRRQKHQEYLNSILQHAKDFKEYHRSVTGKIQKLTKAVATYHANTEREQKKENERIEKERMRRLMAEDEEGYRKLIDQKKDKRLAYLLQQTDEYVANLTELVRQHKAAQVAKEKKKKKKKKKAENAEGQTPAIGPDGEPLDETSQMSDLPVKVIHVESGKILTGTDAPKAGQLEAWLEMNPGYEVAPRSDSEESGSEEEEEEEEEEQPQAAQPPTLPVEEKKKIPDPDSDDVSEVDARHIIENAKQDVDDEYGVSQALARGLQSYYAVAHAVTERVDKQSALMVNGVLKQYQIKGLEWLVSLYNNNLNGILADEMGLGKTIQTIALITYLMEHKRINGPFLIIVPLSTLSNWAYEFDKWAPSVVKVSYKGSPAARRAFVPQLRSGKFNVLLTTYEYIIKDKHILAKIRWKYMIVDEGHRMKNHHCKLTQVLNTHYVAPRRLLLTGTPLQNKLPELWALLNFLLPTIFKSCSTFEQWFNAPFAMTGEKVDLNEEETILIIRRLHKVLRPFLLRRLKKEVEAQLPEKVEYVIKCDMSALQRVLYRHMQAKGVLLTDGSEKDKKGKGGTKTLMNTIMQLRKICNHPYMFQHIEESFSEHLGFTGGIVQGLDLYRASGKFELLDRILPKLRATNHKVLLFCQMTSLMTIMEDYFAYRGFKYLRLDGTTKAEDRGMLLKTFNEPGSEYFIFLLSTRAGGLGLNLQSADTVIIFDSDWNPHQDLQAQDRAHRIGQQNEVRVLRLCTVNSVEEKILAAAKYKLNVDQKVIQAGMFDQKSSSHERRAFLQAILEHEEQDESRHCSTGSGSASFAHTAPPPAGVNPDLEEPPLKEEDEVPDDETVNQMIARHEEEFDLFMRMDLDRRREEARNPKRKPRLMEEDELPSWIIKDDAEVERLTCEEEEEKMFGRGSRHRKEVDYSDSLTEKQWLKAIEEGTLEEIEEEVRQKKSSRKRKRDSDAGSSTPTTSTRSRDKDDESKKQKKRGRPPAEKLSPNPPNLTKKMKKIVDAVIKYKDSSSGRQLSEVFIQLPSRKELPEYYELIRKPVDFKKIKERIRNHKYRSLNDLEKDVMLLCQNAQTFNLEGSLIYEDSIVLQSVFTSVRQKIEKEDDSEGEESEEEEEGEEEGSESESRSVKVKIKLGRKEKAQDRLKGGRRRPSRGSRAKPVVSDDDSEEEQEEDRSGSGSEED
T4 sequence (P51532 whole entry): as above

SMILES | DC50 (SMARCA2) [nM] | Dmax (SMARCA2) [%] | DC50 (SMARCA4) [nM] | Dmax (SMARCA4) [%] | DC50 (SMARCA2-HiBiT) [nM] | Dmax (SMARCA2-HiBiT) [%] | DC50 (SMARCA4-HiBiT) [nM] | Dmax (SMARCA4-HiBiT) [%]
O=C1CCC(N2Cc3cc(CCN4CCC(CCc5cnc(N6CCN7c8cc(-c9ccccc9O)nnc8NC[C@@H]7C6)nc5)CC4)ccc3C2=O)C(=O)N1 (stereo partly drawn) [Example 5, 3-(5-(2-(4-(2-(2-((R)-2-(2-hydroxyphenyl)-5,6,6a,7,9,10-hexahydro-8H-pyrazino[1′,2′:4,5]pyrazino[2,3-c]pyridazin-8-yl)pyrimidin-5-yl)ethyl)piperidin-1-yl)ethyl)-1-oxoisoindolin-2-yl)piperidine-2,6-dione] | < 100 | > 75 | < 100 | > 75 | – | – | – | –
O=C1CCC(n2c3ccc(CCCN4CCC(N5CC(N6CCN7c8cc(-c9ccccc9O)nnc8NC[C@H]7C6)C5)CC4)cc3c3cccnc32)C(=O)N1 (stereo partly drawn) [Example 21, 3-(6-(3-(4-(3-((S)-2-(2-hydroxyphenyl)-5,6,6a,7,9,10-hexahydro-8H-pyrazino [1′,2′:4,5]pyrazino[2,3-c]pyridazin-8-yl)azetidin-1-yl)piperidin-1-yl)propyl)-9H-pyrido[2,3-b]indol-9-yl)piperidine-2,6-dione] | < 100 | > 75 | < 100 | > 75 | – | – | – | –
O=C1CCC(N2C(=O)c3ccc(N4CCC(N5CCC(N6CCN7c8cc(-c9ccccc9O)nnc8NC[C@H]7C6)CC5)C4)cc3C2=O)C(=O)N1 (stereo partly drawn) [Example 13, 2-(2,6-Dioxopiperidin-3-yl)-5-(3-(4-((S)-2-(2-hydroxyphenyl)-5,6,6a,7,9,10-hexahydro-8H-pyrazino[1′,2′:4,5]pyrazino[2,3-c]pyridazin-8-yl)piperidin-1-yl)pyrrolidin-1-yl) isoindoline-1,3-dione] | < 100 | > 75 | < 100 | > 75 | – | – | – | –
O=C1CCC(N2C(=O)c3ccc(N4CCC(OCCN5CCC(N6CCN7c8cc(-c9ccccc9O)nnc8NC[C@H]7C6)C5)CC4)cc3C2=O)C(=O)N1 (stereo partly drawn) [Example 15, 2-(2,6-Dioxopiperidin-3-yl)-5-(4-(2-(3-((S)-2-(2-hydroxyphenyl)-5,6,6a,7,9,10-hexahydro-8H-pyrazino[1′,2′:4,5]pyrazino[2,3-c]pyridazin-8-yl)pyrrolidin-1-yl)ethoxy)piperidin-1-yl) isoindoline-1,3-dione] | < 100 | 50 to 75 | – | – | – | – | – | –
O=C1CCC(N2Cc3cc(CCN4CCC(c5cnc(N6CCN7c8cc(-c9ccccc9O)nnc8NC[C@H]7C6)nc5)CC4)ccc3C2=O)C(=O)N1 (stereo partly drawn) [Example 1, 3-(5-(2-(4-(2-((S)-2-(2-hydroxyphenyl)-5,6,6a,7,9,10-hexahydro-8H-pyrazino [1′,2′:4,5]pyrazino[2,3-c]pyridazin-8-yl)pyrimidin-5-yl)piperidin-1-yl)ethyl)-1-oxoiso-indolin-2-yl)piperidine-2,6-dione] | < 100 | > 75 | < 100 | > 75 | – | – | – | –
O=C1CCC(N2Cc3cc(CCN4CCC(c5cnc(N6CCN7c8cc(-c9ccccc9O)nnc8NC[C@@H]7C6)nc5)CC4)ccc3C2=O)C(=O)N1 (stereo partly drawn) [Example 4, 3-(5-(2-(4-(2-((R)-2-(2-hydroxyphenyl)-5,6,6a,7,9,10-hexahydro-8H-pyrazino[1′,2′:4,5]pyrazino[2,3-c]pyridazin-8-yl)pyrimidin-5-yl)piperidin-1-yl)ethyl)-1-oxoisoindolin-2-yl)piperidine-2,6-dione] | < 100 | > 75 | < 100 | > 75 | – | – | – | –
O=C1CCC(n2c3ccc(CCCN4CCC(N5CCN6c7cc(-c8ccccc8O)nnc7NC[C@H]6C5)CC4)cc3c3cccnc32)C(=O)N1 (stereo partly drawn) [Example 19, 3-(6-(3-(4-((S)-2-(2-hydroxyphenyl)-5,6,6a,7,9,10-hexahydro-8H-pyrazino [1′,2′:4,5]pyrazino[2,3-c]pyridazin-8-yl)piperidin-1-yl)propyl)-9H-pyrido[2,3-b]indol-9-yl) piperidine-2,6-dione] | < 100 | > 75 | < 100 | > 75 | – | – | – | –
O=C1CCC(N2Cc3cc(CN4CCC(c5cnc(N6CCN7c8cc(-c9ccccc9O)nnc8NC[C@H]7C6)nc5)CC4)ccc3C2=O)C(=O)N1 (stereo partly drawn) [Example 10, 3-(5-((4-(2-((S)-2-(2-hydroxyphenyl)-5,6,6a,7,9,10-hexahydro-8H-pyrazino[1′,2′:4,5]pyrazino[2,3-c]pyridazin-8-yl)pyrimidin-5-yl)piperidin-1-yl)methyl)-1-oxoisoindolin-2-yl)piperidine-2,6-dione] | < 100 | > 75 | < 100 | 50 to 75 | – | – | – | –
O=C1CCC(N2Cc3cc(CCN4CCC(OCCN5CCC(N6CCN7c8cc(-c9ccccc9O)nnc8NC[C@H]7C6)CC5)CC4)ccc3C2=O)C(=O)N1 (stereo partly drawn) [Example 8, 3-(5-(2-(4-(2-(4-((S)-2-(2-hydroxyphenyl)-5,6,6a,7,9,10-hexahydro-8H-pyrazino[1′,2′:4,5]pyrazino[2,3-c]pyridazin-8-yl)piperidin-1-yl)ethoxy)piperidin-1-yl)ethyl)-1-oxoisoindolin-2-yl)piperidine-2,6-dione] | < 100 | > 75 | < 100 | > 75 | – | – | – | –
O=C1CCC(n2c3ccc(CCCN4CCC(c5cnc(O[C@H]6C[C@@H]7CNc8nnc(-c9ccccc9O)cc8N7C6)nc5)CC4)cc3c3cccnc32)C(=O)N1 (stereo partly drawn) [Example 23, 3-(6-(3-(4-(2-(((6aR,8S)-2-(2-hydroxyphenyl)-5,6,6a,7,8,9-hexahydro-pyrrolo[1′,2′:4,5]pyrazino[2,3-c]pyridazin-8-yl)oxy)pyrimidin-5-yl)piperidin-1-yl)propyl)-9H-pyrido[2,3-b]indol-9-yl)piperidine-2,6-dione] | < 100 | > 75 | – | – | – | – | – | –
CCC1Nc2nnc(-c3ccccc3O)cc2N2CCN(CC3CCN(CC4CCN(c5ccc6c(c5)C(=O)N(C5CCC(=O)NC5=O)C6=O)CC4)CC3)CC12 (centres unmarked) [Example 128, 2-(2,6-dioxopiperidin-3-yl)-5-(4-((4-((6-ethyl-2-(2-hydroxyphenyl)-5,6,6a,7,9,10-hexahydro-8H-pyrazino[1′,2′:4,5]pyrazino[2,3-c]pyridazin-8-yl)methyl)piperidin-1-yl)methyl)piperidin-1-yl)isoindoline-1,3-dione] | – | – | – | – | < 10 | > 85 | < 10 | > 85
CC1(CN2CCN3c4cc(-c5ccccc5O)nnc4NC[C@H]3C2)CCN(CC2CCN(c3ccc4c(c3)C(=O)N(C3CCC(=O)NC3=O)C4=O)CC2)CC1 (stereo partly drawn) [Example 37, 2-(2,6-dioxopiperidin-3-yl)-5-(4-((4-(((S)-2-(2-hydroxyphenyl)-5,6,6a,7,9,10-hexahydro-8H-pyrazino[1′,2′:4,5]pyrazino[2,3-c]pyridazin-8-yl)methyl)-4-methylpiperidin-1-yl)methyl)piperidin-1-yl)isoindoline-1,3-dione] | – | – | – | – | < 10 | > 85 | < 10 | > 85
